Read-outs that look alike come from different tables or passages of the source.
Tests used:
[1] = tested on: IL6 release from the THP-1 acute leukemia cells; assay: IL6 release from LPS-treated THP-1 cells; type: cell-based; conditions: Homo sapiens, lipopolysaccharide treatment, then Compound 1 for 16 hours
Description: Compound 1 was assessed for its ability to suppress the expression of NF-κB target genes in two experiments. In one experiment, THP-1 acute leukemia cell lines were exposed to lipopolysaccharide treatment and then Compound 1 for 16 hours. […] In the other experiment, the ability of Compound 1 to suppress both IL6 and ILIO expression in TMD8 ABC-DLBCL cells was investigated (data on file). TMD8 cells were incubated with DMSO or 1.6 μM Compound 1 for 6 or 24 hours. RNA was then extracted from the cells and quantified using qRT-PCR.

[2] = tested on: CD34+ cells isolated from the bone marrow of two healthy donors; assay: Megakaryocyte differentiation and proliferation, alone and with ruxolitinib, 10 days (FACS); type: cell-based; conditions: 240 h, 10 days
Description: The cells were then harvested for FACS analysis with live/dead stain and gating with CD34 (progenitor marker) and CD41a and CD42b (mature megakaryocyte markers).

[3] = tested on: patients with myelofibrosis; assay: Initial human clinical data set, four patients (combination and monotherapy arms); type: in vivo
Description: Two myelofibrosis patients to enroll (Patients 245 and 246) received Compound 1 in combination with ruxolitinib and received 18 treatment cycles (11 months of treatment). The other two patients to enroll (Patients 247 and 248) received 10 cycles of Compound 1 as monotherapy (6 months of treatment). […] One of the patients who was transfusion dependent at study entry became transfusion independent (defined as >12 weeks without the need for a red blood cell (RBC) transfusion. Indeed, 7 months had elapsed since their last transfusion.
All four patients experienced an increase in their hemoglobin levels with multiple treatment cycles with Compound 1. In addition, one of the patients who entered the study with uncontrolled thrombocytosis (baseline platelets were 895×10^9/L) experienced a normalization of their platelet counts within the first month of monotherapy treatment with Compound 1. The patient's platelet counts remained normal for more than 20 weeks. This patient's thrombocytosis was also accompanied by severe headaches requiring multiple hospital admission. Following treatment with Compound 1, however, the patient's headaches were resolved. Brief narratives for all four patients treated for at least 6 months are presented below.
At entry into the study with Compound 1, their spleen volume by MRI was 1404 cc and was 12 cm by palpation. The patient presented with early satiety, night sweats, and dyspnea at the start of the study. […] The lowest spleen volume by MRI was 1144 cc, a 19% reduction, at the 6-month MM. The dose of ruxolitinib was reduced on Cycle 10 to 7.5 mg BID to address decreasing platelet count.
When Patient 246 initiated combination treatment with Compound 1 125 mg QD and ruxolitinib 10 mg BID their spleen volume was 607 cc by MRI and 2 cm by palpation and they required regular transfusions (2 units of RBC every 3-4 weeks).
The patient also presented with uncontrolled thrombocytosis at study entry (platelet count of 895×10^9/L at baseline) despite hydroxyurea. In addition, the patient had experienced persistent and debilitating headaches that required multiple hospital admissions for pain control. Their platelets were normalized after receiving their first two weeks of Compound 1 monotherapy (183 x10^9/L) and have remained within the normal range for the remainder of the time they have been on study (see FIG. 6). Within 2 months on Compound 1 monotherapy, the patient's severe headaches had resolved; their night sweats were less frequent; and a 37% reduction in symptoms was assessed by the Myeloproliferative Neoplasm Symptom (MNS) score. Their ECOG performance score decreased from 2 to 1 after two treatment cycles with CPI-0610 and a 25% decrease in spleen volume (640 cc) was assessed by MRI after 8 treatment cycles, the most recent measurement.
Their constitutional symptoms at study entry included fatigue, early satiety, and difficulty concentrating. […] The patient was reinitiated with a reduced Compound 1 dose of 175 mg at the beginning of Cycle 2, which has been tolerated for the remaining time on study (>6 months). While the patient's spleen has shown minimal change through palpation a spleen volume reduction of 11% (1023 cc) was measured by MRI after 3 months on treatment with Compound 1. Their MNS score improved 19% after 2 months on the 175 mg QD dose and after 6 months of Compound 1 treatment their bone marrow fibrosis grade decreased from MF-2 at baseline to MF-1 based on a local pathologist's assessment.

[4] = tested on: patients with refractory or intolerant myelofibrosis no longer on Rux; assay: Phase 2 study, Arm 1 (Compound 1 monotherapy); type: in vivo, human; conditions: for average spleen volume reduction: 24 weeks, FIG. 13A
Description: A Phase 2 study of Compound 1 in subjects with myelofibrosis (MF) was conducted. Three treatment arms were studied: Arm 1=monotherapy with Compound 1 in patients (pts) who are no longer on Rux and are with refractory, intolerant, or ineligible. In this arm patients were further stratified based on transfusion dependence status [transfusion dependent (TD), defined as an average of >2 units per month over 12 wks, or non-TD cohorts]. Primary endpoint: spleen volume response (SVR) for non-TD cohorts or TD to transfusion independence (TI, no transfusion for consecutive 12 wks) conversion for TD cohorts; secondary endpoints: change in total symptom score (TSS) per […]4.0, patient global impression of change (PGIC), safety and PK; additional endpoints: changes in proinflammatory Ck levels, BM morphology and mutant allele burden. The starting dose of Compound 1 was 125 mg given orally, once daily for 2 weeks on/1 week off in a 21-day dosing cycle. Two separate time points for data analysis occurred for at least Arms 1 and 2 and are discussed below: one at approximately 12 weeks of treatment (first assessment of spleen volume by MRI or CT and every 12 weeks thereafter) and another at approximately 24 weeks of treatment (first assessment of bone marrow biopsy and every 24 weeks thereafter). Patients were added to the study following the first time point. Patients were added to the study following the first data cut and treatment was continued for approximately 25.9 weeks (median, range: 0.4, 116.6).

SMILES: Cc1noc2c1-c1ccccc1C(c1ccc(Cl)cc1)=N[C@H]2CC(N)=O [Compound 1, 2-((4S)-6-(4-chlorophenyl)-1-methyl-4H-benzo[c]isoxazolo[4,5-e]azepin-4-yl)acetamide]
- IC50 [1]: 69 nM
- EC50 ([2]; Donor 1, percent of cells double positive for CD41a and CD42b, read-out: Megakaryocyte differentiation EC50): 60 nM
- EC50 ([2]; Donor 1, read-out: Megakaryocyte live count EC50): 26 nM
- EC50 ([2]; Donor 1, read-out: Total live count EC50): 43 nM
- EC50 ([2]; Donor 1, read-out: Viability EC50): 300 nM
- EC50 ([2]; Donor 2, percent of cells double positive for CD41a and CD42b, read-out: Megakaryocyte differentiation EC50): 131 nM
- EC50 ([2]; Donor 2, read-out: Megakaryocyte live count EC50): 29 nM
- EC50 ([2]; Donor 2, read-out: Total live count EC50): 32 nM
- EC50 ([2]; Donor 2, read-out: Viability EC50): > 500 nM
- EC50 ([2]; Mean of two donors, read-out: Megakaryocyte differentiation EC50): 96 nM
- EC50 ([2]; Mean of two donors, read-out: Megakaryocyte live count EC50): 28 nM
- EC50 ([2]; Mean of two donors, read-out: Total live count EC50 (overall cell proliferation)): 38 nM
- EC50 ([2]; Mean of two donors, read-out: Viability EC50): 400 nM
- EC50 ([2]; in the presence of 250 nM ruxolitinib, extrapolated, below the lowest dose tested, read-out: overall cell proliferation mean EC50 in the presence of ruxolitinib): 17 nM
- spleen volume reduction ([3]; Patient 245, 6-month MRI, with ruxolitinib): 19%
- lowest spleen volume by MRI ([3]; Patient 245, 6-month MRI, with ruxolitinib, 1404 cc at entry): 1144 cc
- spleen size ([3]; Patient 245, after 4 weeks of therapy with Compound 1 and ruxolitinib, 12 cm before): 5 cm
- spleen by palpation ([3]; Patient 245, within 4 months, Compound 1 125 mg QD and ruxolitinib 15 mg BID, 12 cm at entry): 5 cm
- time to transfusion independence ([3]; Patient 246, Compound 1 125 mg QD titrated to 175 mg QD and ruxolitinib 10 mg BID, TI = >12 weeks without transfusion and hemoglobin >8 g/dL): ≤ 7 months
- reduction in spleen volume ([3]; Patient 246, by Cycle 12, with ruxolitinib): 37%
- spleen volume ([3]; Patient 246, by Cycle 12, with ruxolitinib, 607 cc at start): 380 cc
- most recent hemoglobin measurement ([3]; Patient 246, with ruxolitinib): 10.9 g/dL
- decrease in spleen volume by MRI ([3]; Patient 247, after 8 treatment cycles, monotherapy): 25%
- spleen volume by MRI ([3]; Patient 247, after 8 treatment cycles, monotherapy, 858 cc at entry): 640 cc
- platelets ([3]; Patient 247, after first two weeks of monotherapy, 895×10^9/L at baseline): 1.83e+11 L⁻¹
- ECOG performance score ([3]; Patient 247, after two treatment cycles, from 2, monotherapy): 1
- reduction in symptoms by Myeloproliferative Neoplasm Symptom (MNS) score ([3]; Patient 247, within 2 months, monotherapy): 37%
- time reduced dose has been tolerated ([3]; Patient 248, 175 mg from Cycle 2): > 6 months
- MNS score improvement ([3]; Patient 248, after 2 months on 175 mg QD): 19%
- spleen volume reduction by MRI ([3]; Patient 248, after 3 months, monotherapy): 11%
- spleen volume by MRI ([3]; Patient 248, after 3 months, monotherapy, 1148 cc at entry): 1023 cc
- hemoglobin level after treatment ([3]; from about 8 g/dl, FIG. 5): about 10.9 g/dl
- tolerability of starting dose ([3]; human, in vivo): did not tolerate
- time elapsed since last transfusion ([3]; patient who was transfusion dependent at study entry): 7 months
- time platelet counts remained normal ([3]; patient with uncontrolled thrombocytosis (Patient 247), monotherapy): more than 20 weeks
- hemoglobin level after treatment ([3]; patients 247 and 248, from about 8 g/dL): about 11.5 g/dL
- patients with increase in hemoglobin by 1.5 mg/dL post-baseline ([4]; Time Point 1, monotherapy, 4 of 8): 50%
- average spleen volume reduction ([4]; Time Point 2, TD patients (Cohort 1A)): about −3.2%
- average spleen volume reduction ([4]; Time Point 2, non-TD patients (Cohort 1B)): about −26%
- patients with improved PGIC ([4]; Time Point 2, TD patients): about 50%
- patients with improvement in bone marrow fibrosis ([4]; Time Point 2, TD patients): about 25%
- patients with improved PGIC ([4]; Time Point 2, non-TD patients): 100%
- patients with improvement in disease symptoms per TSS ([4]; Time Point 2, non-TD patients): About 60%

From patent publication US12070464B2, “Methods of treating myeloproliferative disorders” (priority 2019, dated 2024)
